The target of one experiment is T1, hACC1 (Homo sapiens, UniProt Q13085).
T1 construct: PCR primers were designed for full-length hACC1 and hACC2 using GenBank submissions AY237919 and AJ575592, respectively; His tag (C); made in house; host or cells: baculovirus, Sf9 insect cells
As to the kind of experiment: [14C]bicarbonate incorporation assay, overall ACC activity. The experiment is classed as biochemical. The conditions noted are these: recombinant hACC1, overall ACC activity. The protocol: (§1) In vitro IC50 values of human ACC were determined using recombinant enzyme produced by standard procedures. For example, full-length cDNAs for both the human isoforms (hACC1 and hACC2) were each cloned and expressed as a recombinant protein using a baculovirus system. Double stranded cDNA from human fetal liver (Quick-Clone cDNA, cat. #7171-1) was purchased from BD/Clontech (Mt. View, Calif.). PCR primers were designed for full-length hACC1 and hACC2 using GenBank submissions AY237919 and AJ575592, respectively. The Advantage GC 2 PCR kit (BD/Clontech) was used for amplification. The PCR products (about 7 Kb) were TOPO-cloned into the pCR4Blunt vector (Invitrogen, Carlsbad, Calif.), and 6 clones of each gene were isolated. […] Full length versions of the two cDNAs corresponding to their respective Genbank sequences were assembled in pBluescript SK+ (Stratagene, La Jolla, Calif.) by combining error-free fragments from the PCR clones. The resulting hACC1 clone, designated pCS35, has six silent nucleotide differences compared to Genbank accession AY237919. The final hACC2 clone, designated pCS36, has ten silent nucleotide differences compared to Genbank accession AJ575592. Primers were designed to PCR amplify the cDNAs along with the in-frame 3′-his tag sequences from the pET vector and TOPO-cloned the resulting products into the Gateway® entry vector pENTR/D-TOPO. The ACC2 primers were designed to delete amino acids 1-148 and add Met-Gly in front of Lys149 in the final product. The resulting entry clones were transferred to BaculoDirect™ linear DNA (Invitrogen corp.) using the Gateway® LR recombination reaction. The recombinant baculovirus DNA was transfected into insect cells and viral amplification was performed according to the manufacturer's protocols. For protein expression sf9 cells were infected with a P3 viral stock in the presence of 50 uM biotin. The cells were harvested after 48-72 hr, lysed by sonication, and the resulting extract was clarified by centrifugation. ACC in the crude extract was concentrated by ammonium sulfate precipitation (40% w/v) and purified by Ni^2+-NTA chromatography (Novagen) followed by anion exchange chromatography on a UNO-Q column (BioRad).
(§2) Overall ACC activity in the hACC preparations is measured by following incorporation of [^14C]bicarbonate into […] essentially as described (Thumpy and Wakil, J Biol Chem 260, 6318-6323 (1985). Briefly, the reaction mixture (50 μL) contains: 50 mM Hepes (pH7.4), 20 mM K-Citrate, 20 mM Mg-Acetate 1.5 mM MgSO4, 2 mM DTT, 2 mM acetyl-CoA, 12 mM NaHCO3, 0.2 mM NaH^14CO3 (˜50 mCi/mmol), 0.01% (v/v) Triton X-100, 0.75 mg/mL BSA, 1% (v/v) DMSO (with or without inhibitor), and 0.3 μg (hACC1) or 0.15 μg (hACC2) enzyme. Reactions are initiated by the addition of ATP to a final concentration 2 mM. After 10 minutes at 37° C., the reaction is stopped by the addition of 2N HCl (50 μL). The samples are evaporated in a hood overnight, resuspended in H2O (200 μL), and incorporated label is quantified by scintillation counting in scintillation cocktail (3 mL). Inhibition data are fit to dose-response curves and IC50 values are reported (i.e. the concentration of inhibitor that gives 50% inhibition).

In another experiment the target is T2, hACC2 (Homo sapiens, UniProt O00763).
T2 construct: delete amino acids 1-148 and add Met-Gly in front of Lys149 in the final product; His tag (C); made in house; host or cells: baculovirus, Sf9 insect cells
T2 sequence (O00763 149-2458 limits assumed): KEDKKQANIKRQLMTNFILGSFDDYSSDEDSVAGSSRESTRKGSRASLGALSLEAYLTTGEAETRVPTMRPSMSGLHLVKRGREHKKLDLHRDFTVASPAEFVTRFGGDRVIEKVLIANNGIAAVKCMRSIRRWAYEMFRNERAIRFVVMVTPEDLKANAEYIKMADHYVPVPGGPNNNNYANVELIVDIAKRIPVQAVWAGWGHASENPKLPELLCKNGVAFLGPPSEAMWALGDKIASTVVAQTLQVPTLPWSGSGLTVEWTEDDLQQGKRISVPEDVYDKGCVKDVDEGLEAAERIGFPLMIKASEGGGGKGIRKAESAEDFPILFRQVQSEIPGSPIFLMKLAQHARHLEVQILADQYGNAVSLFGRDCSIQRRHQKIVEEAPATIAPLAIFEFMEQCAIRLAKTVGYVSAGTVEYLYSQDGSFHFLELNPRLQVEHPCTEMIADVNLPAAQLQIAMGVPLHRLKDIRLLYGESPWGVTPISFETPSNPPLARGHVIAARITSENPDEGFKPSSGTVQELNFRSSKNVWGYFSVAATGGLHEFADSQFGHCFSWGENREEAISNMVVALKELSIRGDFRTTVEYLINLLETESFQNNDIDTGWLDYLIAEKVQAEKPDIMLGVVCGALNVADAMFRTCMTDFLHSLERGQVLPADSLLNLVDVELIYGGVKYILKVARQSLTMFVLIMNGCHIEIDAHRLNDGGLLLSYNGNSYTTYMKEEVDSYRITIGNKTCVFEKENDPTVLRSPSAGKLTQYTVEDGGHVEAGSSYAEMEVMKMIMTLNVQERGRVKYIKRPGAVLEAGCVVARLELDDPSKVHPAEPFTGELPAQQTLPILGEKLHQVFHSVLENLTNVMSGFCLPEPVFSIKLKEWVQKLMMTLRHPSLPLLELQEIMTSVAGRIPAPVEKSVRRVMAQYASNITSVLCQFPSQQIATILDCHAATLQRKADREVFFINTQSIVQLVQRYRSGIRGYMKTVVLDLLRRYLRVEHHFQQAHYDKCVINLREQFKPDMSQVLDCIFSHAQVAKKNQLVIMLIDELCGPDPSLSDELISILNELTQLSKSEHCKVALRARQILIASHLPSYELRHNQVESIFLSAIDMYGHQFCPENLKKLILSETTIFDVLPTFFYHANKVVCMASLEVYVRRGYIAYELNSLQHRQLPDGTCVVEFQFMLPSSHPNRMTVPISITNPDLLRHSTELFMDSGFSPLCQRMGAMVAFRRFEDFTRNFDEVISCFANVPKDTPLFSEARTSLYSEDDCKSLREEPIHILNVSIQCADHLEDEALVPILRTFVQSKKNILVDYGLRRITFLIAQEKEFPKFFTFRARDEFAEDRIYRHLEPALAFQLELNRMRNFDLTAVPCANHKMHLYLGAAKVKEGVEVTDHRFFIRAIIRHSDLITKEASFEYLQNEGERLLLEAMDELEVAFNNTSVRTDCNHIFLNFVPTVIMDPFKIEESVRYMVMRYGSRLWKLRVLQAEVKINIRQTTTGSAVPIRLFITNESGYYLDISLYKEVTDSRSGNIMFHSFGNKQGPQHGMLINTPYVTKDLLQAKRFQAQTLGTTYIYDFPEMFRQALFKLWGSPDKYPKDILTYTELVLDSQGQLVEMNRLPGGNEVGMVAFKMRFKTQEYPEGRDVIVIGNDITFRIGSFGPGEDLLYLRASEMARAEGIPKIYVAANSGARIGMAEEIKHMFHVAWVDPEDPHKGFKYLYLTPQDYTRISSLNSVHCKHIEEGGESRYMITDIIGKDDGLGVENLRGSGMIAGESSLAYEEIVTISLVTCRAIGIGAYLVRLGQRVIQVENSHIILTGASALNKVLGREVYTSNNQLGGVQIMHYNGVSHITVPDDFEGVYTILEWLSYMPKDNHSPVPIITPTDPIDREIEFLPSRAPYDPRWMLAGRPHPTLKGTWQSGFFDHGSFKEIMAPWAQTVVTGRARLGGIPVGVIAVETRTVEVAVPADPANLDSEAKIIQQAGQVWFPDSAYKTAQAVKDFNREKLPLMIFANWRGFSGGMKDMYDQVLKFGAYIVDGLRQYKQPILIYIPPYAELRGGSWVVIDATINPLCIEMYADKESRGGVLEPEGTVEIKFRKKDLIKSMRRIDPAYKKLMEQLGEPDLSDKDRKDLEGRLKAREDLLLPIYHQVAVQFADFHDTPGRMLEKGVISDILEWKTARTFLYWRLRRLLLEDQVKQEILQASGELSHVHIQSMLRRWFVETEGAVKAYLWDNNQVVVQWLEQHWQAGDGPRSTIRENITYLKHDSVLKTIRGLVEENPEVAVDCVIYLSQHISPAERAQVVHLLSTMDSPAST
The description is as above. In kind it is biochemical. The conditions noted are these: recombinant hACC2, overall ACC activity. The protocol: as §1, §2

Experiment [1] concerns the target uACC (Ustilago maydis ACC) (Ustilago maydis, UniProt A0A0D1DYD5). The experiment is described as above. The experiment is classed as biochemical.
For experiment [2], the system named is MDA-MB-231 human breast cancer cells. As to the kind of experiment: MTT Cell Proliferation Assay. In kind it is cell-based. The settings on record: 72 hours, read-out: Percent of Control MDA-MB-231. Here is the method:
(§3) The anti-proliferative activity of test compounds against human tumor cell lines is evaluated in vitro using the ATCC's MTT Cell Proliferation Assay (Catalog No. 30-100K). Cell lines are grown using media, serum, and culture conditions recommended by the ATCC. Stock cultures are allowed to grow to 70-80% confluence. Cells are seeded into 96-well culture plates at a predetermined density on day 0 in complete medium (0.1 mL). Plates are placed in a humidified incubator at 37° C. with 5% CO2 and 95% HEPA filtered room air for 24 hours. At this point compound (0.1 mL of 2× stock (in media)) is added to the indicated wells and the plates are returned to the incubator for 72 hours. Cell proliferation is measured by addition of MTT reagent to each well and incubated for an additional 4 hours, followed by addition of cell lysis/MTT solublization reagent and incubating overnight. […] Results are expressed as percent of control cells versus compound concentration. Compounds of the present invention, and salts thereof, were evaluated for anti-proliferative activity as described above.

The subject of experiment [3] is A2780 human ovary cancer cells. As to the kind of experiment: MTT Cell Proliferation Assay. The conditions noted are these: 72 hours, read-out: Percent of Control A2780. The experiment is classed as cell-based. Here is the method: as §3
The subject of experiment [4] is HCT-116 human colon cancer cells. As to the kind of experiment: MTT Cell Proliferation Assay. The experiment is classed as cell-based. The settings on record: 72 hours, read-out: Percent of Control HCT-116. Here is the method:
as §3

Experiment [5] concerns PC-3 human prostate cancer cells. The experiment can be described thus: MTT Cell Proliferation Assay. The experiment is classed as cell-based. The settings on record: 72 hours, read-out: Percent of Control PC-3. Here is the method: as §3

Our source for the IC50 and activity values is patent US8110570B2, “Modulators of acetyl-coenzyme A carboxylase and methods of use thereof” (Cropsolution, Inc., priority 2008, dated 2012).

Broadly, the IC50 is the concentration at which inhibition is half-maximal.

Each structure is given as a SMILES string.

Chain of uACC (Ustilago maydis ACC) (A0A0D1DYD5 entry or part of it): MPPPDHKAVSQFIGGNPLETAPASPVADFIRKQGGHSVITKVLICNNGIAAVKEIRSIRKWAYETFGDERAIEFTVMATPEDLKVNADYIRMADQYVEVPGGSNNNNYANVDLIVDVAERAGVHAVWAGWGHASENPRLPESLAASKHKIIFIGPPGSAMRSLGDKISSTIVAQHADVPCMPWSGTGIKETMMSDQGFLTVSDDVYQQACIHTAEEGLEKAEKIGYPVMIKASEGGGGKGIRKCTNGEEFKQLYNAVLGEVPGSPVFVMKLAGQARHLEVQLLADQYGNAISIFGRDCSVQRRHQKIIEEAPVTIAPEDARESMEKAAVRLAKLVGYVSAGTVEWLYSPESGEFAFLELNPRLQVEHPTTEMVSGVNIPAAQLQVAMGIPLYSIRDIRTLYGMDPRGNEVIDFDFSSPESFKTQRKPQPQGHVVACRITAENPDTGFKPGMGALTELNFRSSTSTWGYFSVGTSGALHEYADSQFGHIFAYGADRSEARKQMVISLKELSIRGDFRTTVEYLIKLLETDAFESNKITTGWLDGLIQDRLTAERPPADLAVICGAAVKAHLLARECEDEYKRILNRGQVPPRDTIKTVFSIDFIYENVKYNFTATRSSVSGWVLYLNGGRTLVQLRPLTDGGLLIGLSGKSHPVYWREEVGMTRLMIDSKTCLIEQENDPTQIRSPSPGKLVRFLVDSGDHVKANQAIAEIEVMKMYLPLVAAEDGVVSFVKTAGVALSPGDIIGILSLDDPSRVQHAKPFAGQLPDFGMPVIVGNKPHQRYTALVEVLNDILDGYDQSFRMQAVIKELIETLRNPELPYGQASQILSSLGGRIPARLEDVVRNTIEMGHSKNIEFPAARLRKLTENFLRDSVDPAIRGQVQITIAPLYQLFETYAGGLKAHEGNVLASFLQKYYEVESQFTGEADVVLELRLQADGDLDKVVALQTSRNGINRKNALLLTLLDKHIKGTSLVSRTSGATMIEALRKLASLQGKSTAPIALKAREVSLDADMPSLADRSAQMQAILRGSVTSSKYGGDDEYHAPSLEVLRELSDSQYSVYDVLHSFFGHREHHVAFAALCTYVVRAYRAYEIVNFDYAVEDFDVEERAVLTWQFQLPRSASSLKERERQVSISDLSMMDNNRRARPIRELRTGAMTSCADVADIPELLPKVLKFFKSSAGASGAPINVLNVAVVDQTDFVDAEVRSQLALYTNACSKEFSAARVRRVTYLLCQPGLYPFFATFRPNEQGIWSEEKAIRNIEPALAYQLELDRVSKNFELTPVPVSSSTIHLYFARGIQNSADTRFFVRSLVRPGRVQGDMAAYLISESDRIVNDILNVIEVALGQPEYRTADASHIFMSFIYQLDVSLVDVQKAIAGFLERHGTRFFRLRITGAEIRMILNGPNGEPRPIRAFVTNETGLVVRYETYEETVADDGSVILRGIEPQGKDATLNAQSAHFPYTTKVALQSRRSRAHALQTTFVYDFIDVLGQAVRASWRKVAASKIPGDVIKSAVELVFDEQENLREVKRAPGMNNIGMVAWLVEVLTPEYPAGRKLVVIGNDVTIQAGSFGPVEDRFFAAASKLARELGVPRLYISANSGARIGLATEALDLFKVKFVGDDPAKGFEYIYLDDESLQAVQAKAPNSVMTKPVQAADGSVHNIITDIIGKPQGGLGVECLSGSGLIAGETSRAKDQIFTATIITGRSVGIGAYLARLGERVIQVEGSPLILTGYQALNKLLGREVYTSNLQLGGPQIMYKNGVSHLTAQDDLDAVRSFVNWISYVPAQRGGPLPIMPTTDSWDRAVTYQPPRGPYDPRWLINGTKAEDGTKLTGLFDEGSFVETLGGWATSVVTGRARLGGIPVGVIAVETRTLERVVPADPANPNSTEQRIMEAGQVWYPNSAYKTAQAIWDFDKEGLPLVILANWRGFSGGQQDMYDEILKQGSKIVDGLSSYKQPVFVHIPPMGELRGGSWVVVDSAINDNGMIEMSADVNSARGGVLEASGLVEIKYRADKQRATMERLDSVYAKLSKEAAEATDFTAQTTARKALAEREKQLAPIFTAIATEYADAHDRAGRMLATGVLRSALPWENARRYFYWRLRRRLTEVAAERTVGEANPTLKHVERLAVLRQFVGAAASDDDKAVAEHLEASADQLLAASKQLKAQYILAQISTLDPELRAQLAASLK

For `O=C1NC2(CCN(C(=O)c3sc4ccccc4c3Cl)CC2)Oc2ccc(Br)cc21` [Compound 1, 6-Bromo-1′-[(3-chlorobenzothien-2-yl)carbonyl]spiro[2H-1,3-benzoxazine-2,4′-piperidine]-4(3H)-one], the IC50 at hACC1 was found to be 6000 nM; at hACC2, 5400 nM; in experiment [1], 160000 nM.
The corresponding values for `COc1cc2c(OC)cccc2cc1C(=O)N1CCC2(CC1)NC(=O)c1cc(Br)ccc1O2` [Compound 3, 6-Bromo-1′-[(3,5-dimethoxynaphth-2-yl)carbonyl]spiro[2H-1,3-benzoxazine-2,4′-piperidine]-4(3H)-one] are 860 nM, 290 nM and 90000 nM.
For `Cc1nn(C)c2sc(C(=O)N3CCC4(CC3)NC(=O)c3cc(Br)ccc3O4)cc12` [Compound 4, 6-Bromo-1′-{(1,3-dimethyl-1H-thieno[2,3-c]pyrazol-5-yl)carbonyl} spiro[2H-1,3-benzoxazin-2,4′-piperidin]-4-(3H)-one], in that order: 2800 nM, 2900 nM and 50000 nM.
For `O=C1NC2(CCN(C(=O)c3cc4c(Cl)cccc4s3)CC2)Oc2ccc(Br)cc21` [Compound 5, 6-Bromo-1′-[(4-chlorobenzthien-2-yl)carbonyl]spiro[2H-1,3-benzoxazin-2,4′-piperidin]-4-(3H)-one], in that order: 4500 nM, 2100 nM and more than 135000 nM.
Regarding `COc1cc(C(=O)N2CCC3(CC2)NC(=O)c2cc(Br)ccc2O3)cc2c(OC)cccc12` [Compound 30, 6-Bromo-1′-[(4,8-dimethoxynaphth-2-yl)carbonyl]spiro[2H-1,3-benzoxazin-2,4′-piperidin]-4-(3H)-one], the IC50 on hACC1 was found to be 16 nM; on hACC2 it was 17 nM; in experiment [1], 20000 nM.
The corresponding values for `COc1cc(C(=O)N2CCC3(CC2)NC(=O)c2cc(NC(C)=O)ccc2O3)nc2c(C3CC3)cccc12` [Compound 33] are 73 nM, 51 nM and 19300 nM.
The corresponding values for `COc1ccc(-c2cc(C(=O)N3CCC4(CC3)NC(=O)c3ccccc3O4)n[nH]2)cc1` [Compound 87, 1′-[5-(4-Methoxyphenyl)-1(H)-pyrazol-3-ylcarbonyl]spiro[2H-1,3-benzoxazin-2,4′-piperidin]-4-(3H)-one] are 9700 nM, 12000 nM and 220000 nM.
The corresponding values for `COc1cc(C(=O)N2CCC3(CC2)NC(=O)c2cc(C)ccc2O3)cc2c(OC)cccc12` [Compound 145, 1′-[(4,8-Dimethoxynaphth-2-yl)carbonyl]-6-methylspiro[2H-1,3-benzoxazin-2,4′-piperidin]-4-(3H)-one] are 11 nM, 7 nM and 5200 nM.
With `COc1ccc2c(c1)C(=O)NC1(CCN(C(=O)c3[nH]c4c(OC)cccc4c3C)CC1)O2` [Compound 151], the figures for the IC50 at hACC1 and on hACC2 were 82 nM and 96 nM, respectively. Moreover, the activity at 3.3 µM in experiment [2] amounted to 82.9%; in experiment [3], 92.7%; in experiment [4], 78.6%; in experiment [5], 86.1%. For the same compound, the activity at 10 µM in experiment [2] was determined as 50.1%; in experiment [3], 64%; in experiment [4] it was 61.8%; in experiment [5], 68.5%.
Take `COc1ccc2c(c1)C(=O)NC1(CCN(C(=O)c3cc(OC)c4cccc(OC)c4c3)CC1)O2` [Compound 152, 1′-[(4,8-Dimethoxynaphth-2-yl)carbonyl]-6-methoxyspiro[2H-1-1,3-benzoxazin-2,4′-piperidin]-4-(3H)-one]: the results for the IC50 at hACC1 and at hACC2 were 4 nM and 3 nM, respectively. Also, the activity at 3.3 µM in experiment [2] turned out to be 57%; in experiment [3] it was 84.1%; in experiment [4], 53.3%; in experiment [5], 88%. Also, the results for the activity at 10 µM in experiment [2], in experiment [3] and in experiment [4] were 25.7%, 56.9% and 42%, respectively.
With `COc1ccc2cc3c(cc2c1)C(=O)NC1(CCN(C(=O)c2cc(OC)c4cccc(OC)c4n2)CC1)O3` [Compound 164], the IC50 on hACC1 and on hACC2 was 4 nM each time. Moreover, the activity at 3.3 µM in experiment [2] came out at 47.6%; in experiment [3], 73.1%; in experiment [4] it was 54%; in experiment [5] it was 68%. Moreover, the activity at 10 µM in experiment [2] stood at 13.9%; in experiment [3], 46%; in experiment [4] it was 43.5%.
In the case of `COc1cccc2c(C)c(C(=O)N3CCC4(CC3)NC(=O)c3cc(OC(C)C)ccc3O4)[nH]c12` [Compound 180], the figures for the IC50 on hACC1 and at hACC2 were 36 nM and 42 nM, respectively. Moreover, the activity at 3.3 µM in experiment [2] is 68.7%; in experiment [3], 79.4%; in experiment [4], 52.6%; in experiment [5] it was 79.5%. Also, the activity at 10 µM in experiment [2] came out at 9.3%; in experiment [3], 21.2%; in experiment [4], 29.8%; in experiment [5] it was 56.8%.
On to `COc1ccc(OC)c2[nH]c(C(=O)N3CCC4(CC3)NC(=O)c3cc(OC(C)C)ccc3O4)cc12` [Compound 184], for which the values for the IC50 at hACC1 and on hACC2 were 480 nM and 400 nM, respectively. Also, the activity at 3.3 µM in experiment [2] is 75.8%; in experiment [3], 90%; in experiment [4], 65.5%; in experiment [5], 81.3%. For the same compound, the activity at 10 µM was 46.1% in experiment [2], 44.7% in experiment [3], 40.4% in experiment [4] and 64.6% in experiment [5].
As to `COC(=O)c1ccc2c(c1)C(=O)NC1(CCN(C(=O)c3cc(OC)c4cccc(OC)c4n3)CC1)O2` [Compound 201], the IC50 at hACC1 was 20 nM; on hACC2, 18 nM. Further, the activity at 3.3 µM came to 82.5% in experiment [2], 83.2% in experiment [3], 59.8% in experiment [4] and 52.7% in experiment [5]. The activity at 10 µM in experiment [2] is 61.5%; in experiment [3], 46.4%; in experiment [4], 46.8%; in experiment [5], 37.1%.
